# Results from PubChem BioAssay AID330 (DTP/NCI, 2004).
# “And” between values parts separate entries of the source, which are not always exact repeats. Identical values can stand only once. Inconclusive results and toxic doses are left out. Peptide text beside a SMILES is read from it. * marks the point of attachment. Cbz = O=C(OCc1ccccc1)*; Bn = c1ccc(C*)cc1
# Tested on: P388 leukemia ip, CD2F1 mice, survival T/C
# Test: NCI In Vivo Anticancer Drug Screen. Data for tumor model P388 Leukemia (intraperitoneal) in CD2F1 (CDF1) mice
# Conditions: endpoint: median survival time, higher = longer survival
# Outline: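 Mice carrying the transplanted tumor received test compound or vehicle. Survival was recorded in each group, and the value is the treated-group measurement divided by that of the vehicle-treated control group.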
# [1] = dose: 50.0 mg/kg/injection, schedule: Q01DX009 (ip), vehicle: saline with Tween-80
# [2] = dose: 100.0 mg/kg/injection, schedule: Q01DX009 (ip), vehicle: saline with Tween-80
# [3] = dose: 200.0 mg/kg/injection, schedule: Q01DX009 (ip), vehicle: saline with Tween-80
# [4] = dose: 25.0 mg/kg/injection, schedule: Q01DX009 (ip), vehicle: saline
# [5] = dose: 50.0 mg/kg/injection, schedule: Q01DX009 (ip), vehicle: saline
# [6] = dose: 100.0 mg/kg/injection, schedule: Q01DX009 (ip), vehicle: saline
# [7] = dose: 200.0 mg/kg/injection, schedule: Q01DX009 (ip), vehicle: saline
# [8] = dose: 100.0 mg/kg/injection, schedule: Q04DX003 (ip), vehicle: saline with Tween-80
# [9] = dose: 200.0 mg/kg/injection, schedule: Q04DX003 (ip), vehicle: saline with Tween-80
# [10] = dose: 400.0 mg/kg/injection, schedule: Q04DX003 (ip), vehicle: saline with Tween-80
# [11] = dose: 50.0 mg/kg/injection, schedule: Q01DX005 (ip), vehicle: Klucel (hydroxypropylcellulose) (HPC)
# [12] = dose: 100.0 mg/kg/injection, schedule: Q01DX005 (ip), vehicle: Klucel (hydroxypropylcellulose) (HPC)
# [13] = dose: 200.0 mg/kg/injection, schedule: Q01DX005 (ip), vehicle: Klucel (hydroxypropylcellulose) (HPC)
# [14] = dose: 50.0 mg/kg/injection, schedule: Q01DX009 (ip), vehicle: suspension in saline
# [15] = dose: 60.0 mg/kg/injection, schedule: Q01DX005 (ip), vehicle: saline with Tween-80
# [16] = dose: 120.0 mg/kg/injection, schedule: Q01DX005 (ip), vehicle: saline with Tween-80
# [17] = dose: 240.0 mg/kg/injection, schedule: Q01DX005 (ip), vehicle: saline with Tween-80
compound,measurement,setting,value
CC(NC(=O)OCc1ccccc1)C(=O)NC(CCC(=O)O)C(=O)O (configuration not stated),T/C,"dose: 50.0 mg/kg/injection, schedule: Q01DX005 (ip), vehicle: saline",97 % of control
same,T/C,"dose: 100.0 mg/kg/injection, schedule: Q01DX005 (ip), vehicle: saline",101 % of control
same,T/C,"dose: 200.0 mg/kg/injection, schedule: Q01DX005 (ip), vehicle: saline",106 % of control
CNC(=O)OC/C=C/c1ccccc1,T/C,[1],99 % of control
same,T/C,[2],99 % of control
same,T/C,[3],92 % of control
CN(C)C(=S)c1cccc2ccccc12,T/C,[1],86 % of control
same,T/C,[2],96 % of control
same,T/C,[3],114 % of control
Cc1cc(-c2cccc3ccccc23)[n+]([O-])cc1C,T/C,"dose: 50.0 mg/kg/injection, schedule: Q01DX005 (ip), vehicle: saline with Tween-80",101 % of control
same,T/C,"dose: 100.0 mg/kg/injection, schedule: Q01DX005 (ip), vehicle: saline with Tween-80",101 % of control
same,T/C,"dose: 200.0 mg/kg/injection, schedule: Q01DX005 (ip), vehicle: saline with Tween-80",90 % of control
O=CC1CO1 (configuration not stated),T/C,"dose: 12.5 mg/kg/injection, schedule: Q01DX009 (ip), vehicle: saline",109 % of control
same,T/C,"dose: 12.5 mg/kg/injection, schedule: Q04DX003 (ip), vehicle: saline",112 % of control
same,T/C,[4],118 % of control
same,T/C,"dose: 25.0 mg/kg/injection, schedule: Q04DX003 (ip), vehicle: saline",104 % of control
same,T/C,"dose: 50.0 mg/kg/injection, schedule: Q04DX003 (ip), vehicle: saline",116 % of control
COc1ccc(/C(C#N)=C\c2ccnc3ccccc23)cc1,T/C,"dose: 1.56 mg/kg/injection, schedule: Q01DX009 (ip), vehicle: distilled water + Tween-80",103 % of control
same,T/C,"dose: 3.13 mg/kg/injection, schedule: Q01DX009 (ip), vehicle: distilled water + Tween-80",94 % of control
same,T/C,"dose: 6.25 mg/kg/injection, schedule: Q01DX009 (ip), vehicle: distilled water + Tween-80",93 % of control
same,T/C,"dose: 12.5 mg/kg/injection, schedule: Q01DX009 (ip), vehicle: distilled water + Tween-80",94 % of control
same,T/C,"dose: 25.0 mg/kg/injection, schedule: Q01DX009 (ip), vehicle: distilled water + Tween-80",91 % of control
CC1Cn2c(c(-c3ccccc3)c(=O)[nH]c2=S)O1 (configuration not stated),T/C,[1],100 % of control
same,T/C,[2],98 % of control
same,T/C,[3],91 % of control
O=c1oc(-c2cc([N+](=O)[O-])ccc2Cl)nc2ccccc12,T/C,"dose: 33.0 mg/kg/injection, schedule: Q04DX003 (ip), vehicle: saline with Tween-80",100 % of control
same,T/C,"dose: 50.0 mg/kg/injection, schedule: Q04DX003 (ip), vehicle: saline with Tween-80",100 % of control
same,T/C,"dose: 75.0 mg/kg/injection, schedule: Q04DX003 (ip), vehicle: saline with Tween-80",99 % of control
O=C1NC(CN2CCC(O)CC2)C(=O)NC1CN1CCC(O)CC1 (configuration not stated),T/C,[4],100 % of control
same,T/C,[5],100 % of control
same,T/C,[6],98 % of control
same,T/C,[7],97 % of control
Cc1cc2ccccc2c2c(C)c3cccc[n+]3cc12,T/C,"dose: 6.25 mg/kg/injection, schedule: Q04DX003 (ip), vehicle: other",114 % of control
same,T/C,"dose: 12.5 mg/kg/injection, schedule: Q04DX003 (ip), vehicle: other",110 % of control
same,T/C,"dose: 25.0 mg/kg/injection, schedule: Q04DX003 (ip), vehicle: other",110 % of control
CC1=NN(C(=O)c2cccnc2)C(=O)C1N=Nc1ccc(S(=O)(=O)Nc2ccccn2)cc1 (configuration not stated),T/C,[8],94 % of control
same,T/C,[9],93 % of control
same,T/C,[10],90 % of control
CCCCC(=O)N1SC(NC(=O)OC)=Nc2ccccc21,T/C,[11],101 % of control
same,T/C,[12],100 % of control
same,T/C,[13],109 % of control
O=[N+]([O-])c1ccc(CS(=O)(=O)C(Cl)(Cl)Cl)o1,T/C,"dose: 6.25 mg/kg/injection, schedule: Q01DX009 (ip), vehicle: saline",108 % of control and 112 % of control and 87 % of control
same,T/C,[14],86 % of control
same,T/C,"dose: 200.0 mg/kg/injection, schedule: Q01DX009 (ip), vehicle: suspension in saline",86 % of control
O=C1CS(=O)(=O)C(c2cccc(F)c2)N1N1C(=O)CS(=O)(=O)C1c1cccc(F)c1 (configuration not stated),T/C,[15],92 % of control
same,T/C,[16],95 % of control
same,T/C,[17],94 % of control
CCCCCCCCCCCCCOCC(=O)O,T/C,"dose: 50.0 mg/kg/injection, schedule: Q01DX009 (ip), vehicle: Klucel (hydroxypropylcellulose) (HPC)",100 % of control
same,T/C,"dose: 100.0 mg/kg/injection, schedule: Q01DX009 (ip), vehicle: Klucel (hydroxypropylcellulose) (HPC)",95 % of control
same,T/C,"dose: 200.0 mg/kg/injection, schedule: Q01DX009 (ip), vehicle: Klucel (hydroxypropylcellulose) (HPC)",102 % of control
CCOC(=O)CNC(=O)C(CSCc1ccccc1)NC(=O)C(NC(=O)OCc1ccccc1)C(C)C (stereo not drawn) (Cbz-Val-Cys(Bn)-Gly-OEt; configuration not given here),T/C,[11],98 % of control
same,T/C,[12],100 % of control
same,T/C,[13],88 % of control
O=C(O)C(=O)O.O=N[O-].[Co+3].[NH-]CC[N-]CC[NH-],T/C,"dose: 25.0 mg/kg/injection, schedule: Q01DX009 (ip), vehicle: saline with Tween-80",108 % of control
same,T/C,[1],108 % of control
O=C1OC(c2cccc(Cl)c2)=N/C1=C\C=C/c1ccccc1,T/C,[14],93 % of control
same,T/C,"dose: 100.0 mg/kg/injection, schedule: Q01DX009 (ip), vehicle: suspension in saline",93 % of control
O=C1OC2(O)c3ccccc3C(=O)N2N2CCCC12 (configuration not stated),T/C,"dose: 60.0 mg/kg/injection, schedule: Q01DX005 (ip), vehicle: Klucel (hydroxypropylcellulose) (HPC)",109 % of control
same,T/C,"dose: 120.0 mg/kg/injection, schedule: Q01DX005 (ip), vehicle: Klucel (hydroxypropylcellulose) (HPC)",98 % of control
same,T/C,"dose: 240.0 mg/kg/injection, schedule: Q01DX005 (ip), vehicle: Klucel (hydroxypropylcellulose) (HPC)",98 % of control
C[C@]12CC[C@@H]3c4ccc(OC(=O)Cc5ccc(N(CCCl)CCCl)cc5)cc4CC[C@H]3[C@@H]1CC[C@@H]2OC(=O)Cc1ccc(N(CCCl)CCCl)cc1,T/C,[8],100 % of control
same,T/C,[9],120 % of control
same,T/C,"dose: 264.0 mg/kg/injection, schedule: Q04DX003 (ip), vehicle: saline with Tween-80",109 % of control
same,T/C,[10],113 % of control
same,T/C,"dose: 600.0 mg/kg/injection, schedule: Q04DX003 (ip), vehicle: saline with Tween-80",154 % of control
C=CCn1nnc(N)n1,T/C,"dose: 100.0 mg/kg/injection, schedule: Q04DX003 (ip), vehicle: Klucel (hydroxypropylcellulose) (HPC)",111 % of control
same,T/C,"dose: 200.0 mg/kg/injection, schedule: Q04DX003 (ip), vehicle: Klucel (hydroxypropylcellulose) (HPC)",109 % of control
same,T/C,"dose: 400.0 mg/kg/injection, schedule: Q04DX003 (ip), vehicle: Klucel (hydroxypropylcellulose) (HPC)",105 % of control
CC1OC(=O)c2cc3ccccc3nc21 (configuration not stated),T/C,[15],93 % of control
same,T/C,[16],100 % of control
same,T/C,[17],93 % of control
CN(C)C(=O)NCCCCCCNC(=O)N(C)C,T/C,[5],105 % of control
same,T/C,[6],100 % of control
same,T/C,[7],110 % of control
C#CCOc1ccc(Cl)cc1C(=O)O,T/C,[1],105 % of control
same,T/C,[2],102 % of control
same,T/C,[3],97 % of control
CCCCCCCCCCCC(=O)OC1CCC2(C)C(=CCC3C2CCC2(C)C(C(C)/C=C/C(CC)C(C)C)CCC32)C1 (configuration not stated),T/C,"dose: 100.0 mg/kg/injection, schedule: Q04DX003 (ip), vehicle: other",102 % of control
same,T/C,"dose: 200.0 mg/kg/injection, schedule: Q04DX003 (ip), vehicle: other",102 % of control
CCCCOC(=O)c1ccccc1C(=O)O.CCCCOC(=O)c1ccccc1C(=O)O.[Cu+2],T/C,"dose: 6.25 mg/kg/injection, schedule: Q04DX003 (ip), vehicle: saline with Tween-80",102 % of control
same,T/C,"dose: 12.5 mg/kg/injection, schedule: Q04DX003 (ip), vehicle: saline with Tween-80",96 % of control
same,T/C,"dose: 25.0 mg/kg/injection, schedule: Q04DX003 (ip), vehicle: saline with Tween-80",102 % of control
